Here are results for ten compounds from patent publication US20230257372A1 (CHONG KUN DANG PHARMACEUTICAL CORP., priority 2020, published 2023).

In one experiment the target is T1, human recombinant HDAC1 (Homo sapiens, UniProt Q13547).
T1 construct: purchased Enzo Life Science, Inc. BML-SE456
Nature of the experiment: HDAC1 enzyme activity inhibition (HDAC Fluorimetric Drug Discovery Kit). It counts as biochemical. The settings on record: human recombinant HDAC1; IC50 calculated with GraphPad Prism; read-out: HDAC1. On the procedure: (§1) An experiment was conducted to identify the selectivity of the compound represented by formula I of the present invention to HDAC6 through an experiment on HDAC1 and HDAC6 enzyme activity inhibition.
(§2) A 5-fold dilution of the compound was divided into a 96-well plate, after which […] of the enzyme and 10 μM of the substrate were inserted into each well and subjected to reaction at 30° C. for 60 minutes, such that Fluor de Lys® Developer II (BML-KI176) was inserted thereinto and subjected to reaction for 30 minutes and finished.

A further experiment deals with T2, human recombinant HDAC6 (Homo sapiens, UniProt Q9UBN7).
T2 construct: purchased Calbiochem Inc. 382180
T2 sequence (Q9UBN7 1-1215): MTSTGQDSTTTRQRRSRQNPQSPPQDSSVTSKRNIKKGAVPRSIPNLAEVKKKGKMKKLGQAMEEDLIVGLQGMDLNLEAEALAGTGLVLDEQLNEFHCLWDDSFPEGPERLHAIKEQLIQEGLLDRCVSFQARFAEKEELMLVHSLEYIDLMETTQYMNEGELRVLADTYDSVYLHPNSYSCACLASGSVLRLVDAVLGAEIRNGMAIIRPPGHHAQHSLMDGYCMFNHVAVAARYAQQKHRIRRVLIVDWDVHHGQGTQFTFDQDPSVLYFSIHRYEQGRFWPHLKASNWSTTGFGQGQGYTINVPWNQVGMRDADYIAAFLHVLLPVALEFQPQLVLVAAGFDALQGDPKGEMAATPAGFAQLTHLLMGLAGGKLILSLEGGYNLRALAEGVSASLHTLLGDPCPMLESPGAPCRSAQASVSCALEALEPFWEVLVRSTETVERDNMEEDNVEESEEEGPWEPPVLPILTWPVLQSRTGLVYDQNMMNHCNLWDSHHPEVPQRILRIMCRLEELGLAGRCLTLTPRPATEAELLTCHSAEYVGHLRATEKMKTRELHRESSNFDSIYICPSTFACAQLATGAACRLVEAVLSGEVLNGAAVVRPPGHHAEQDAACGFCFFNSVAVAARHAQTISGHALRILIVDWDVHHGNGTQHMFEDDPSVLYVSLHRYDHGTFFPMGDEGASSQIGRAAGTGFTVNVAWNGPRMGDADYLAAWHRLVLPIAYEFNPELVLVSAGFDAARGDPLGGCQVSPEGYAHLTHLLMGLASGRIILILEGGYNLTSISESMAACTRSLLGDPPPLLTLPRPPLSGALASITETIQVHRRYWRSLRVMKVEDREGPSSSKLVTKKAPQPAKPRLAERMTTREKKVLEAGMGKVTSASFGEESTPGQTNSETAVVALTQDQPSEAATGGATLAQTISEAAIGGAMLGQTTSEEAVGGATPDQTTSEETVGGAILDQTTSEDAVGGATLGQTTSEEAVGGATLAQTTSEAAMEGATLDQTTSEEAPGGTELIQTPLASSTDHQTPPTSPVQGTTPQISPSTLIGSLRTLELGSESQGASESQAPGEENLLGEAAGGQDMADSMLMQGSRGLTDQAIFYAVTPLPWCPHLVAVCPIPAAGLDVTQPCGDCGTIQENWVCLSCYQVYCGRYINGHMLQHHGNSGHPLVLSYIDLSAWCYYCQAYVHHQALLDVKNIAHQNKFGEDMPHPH
Description: HDAC6 enzyme activity inhibition (HDAC Fluorimetric Drug Discovery Kit). It is filed as biochemical. The note with it: for HDAC6 selectivity (fold): HDAC1 IC50 / HDAC6 IC50; for IC50: human recombinant HDAC6, IC50 calculated with GraphPad Prism. Here is the method:
as §1, §2

Where only a bound is given, the exact number is not on record here.

T1 sequence (Q13547 whole entry): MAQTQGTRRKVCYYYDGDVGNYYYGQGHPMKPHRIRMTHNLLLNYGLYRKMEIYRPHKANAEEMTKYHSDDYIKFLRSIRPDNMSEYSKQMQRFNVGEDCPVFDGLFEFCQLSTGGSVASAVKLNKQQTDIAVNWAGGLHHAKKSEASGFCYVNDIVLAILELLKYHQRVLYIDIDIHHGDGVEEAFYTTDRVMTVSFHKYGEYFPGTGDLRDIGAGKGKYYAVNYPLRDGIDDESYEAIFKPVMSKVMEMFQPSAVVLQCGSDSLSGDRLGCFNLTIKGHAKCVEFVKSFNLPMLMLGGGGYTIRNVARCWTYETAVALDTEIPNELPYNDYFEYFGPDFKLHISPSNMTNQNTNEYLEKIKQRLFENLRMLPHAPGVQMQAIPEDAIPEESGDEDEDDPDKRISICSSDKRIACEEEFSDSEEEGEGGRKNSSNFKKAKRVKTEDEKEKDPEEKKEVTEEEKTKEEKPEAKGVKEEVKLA

With `O=C(c1cccc(-c2cn(Cc3ccc(-c4nnc(C(F)F)o4)cn3)nn2)c1)N1CCCC1` [Compound 3829, (3-(1-((5-(5-(difluoromethyl)-1,3,4-oxadiazol-2-yl)pyridin-2-yl)methyl)-1H-1,2,3-triazol-4-yl)phenyl)(pyrrolidin-1-yl)methanone], the IC50 at human recombinant HDAC1 was above 50000 nM. Moreover, at human recombinant HDAC6, the “HDAC6 selectivity (fold)” value worked out at 1655 fold and the IC50 was 30.2 nM.
The corresponding values for `CN1CCC(Nc2cccc(-c3cn(Cc4ccc(-c5nnc(C(F)F)o5)cn4)nn3)c2)CC1` [Compound 3830, N-(3-(1-((5-(5-(difluoromethyl)-1,3,4-oxadiazol-2-yl)pyridin-2-yl)methyl)-1H-1,2,3-triazol-4-yl)phenyl)-1-methylpiperidin-4-amine] are above 50000 nM, 219 fold and 22.8 nM.
As to `CCCc1cn(Cc2ccc(-c3nnc(C(F)F)o3)cn2)nn1` [Compound 3831, 2-(difluoromethyl)-5-(6-((4-propyl-1H-1,2,3-triazol-l-yl)methyl)pyridin-3-yl)-1,3,4-oxadiazole], the IC50 on human recombinant HDAC1 was above 50000 nM. On human recombinant HDAC6, the “HDAC6 selectivity (fold)” value is recorded as 343 fold and the IC50 was 145 nM.
Turning to `CCCCc1cn(Cc2ccc(-c3nnc(C(F)F)o3)cn2)nn1` [Compound 3832, 2-(6-((4-butyl-1H-1,2,3-triazol-1-yl)methyl)pyridin-3-yl)-5-(difluoromethyl)-1,3,4-oxadiazole], the IC50 on human recombinant HDAC1 was above 50000 nM; at human recombinant HDAC6, 190 nM. Moreover, on human recombinant HDAC6, the “HDAC6 selectivity (fold)” value is listed as 263 fold.
The corresponding values for `OCCCc1cn(Cc2ccc(-c3nnc(C(F)F)o3)cn2)nn1` [Compound 3833, 3-(1-((5-(5-(difluoromethyl)-1,3,4-oxadiazol-2-yl)pyridin-2-yl)methyl)-1H-1,2,3-triazol-4-yl)propan-1-ol] are above 50000 nM, 424 nM and 117 fold.
For `OCCCCc1cn(Cc2ccc(-c3nnc(C(F)F)o3)cn2)nn1` [Compound 3834, 4-(1-((5-(5-(difluoromethyl)-1,3,4-oxadiazol-2-yl)pyridin-2-yl)methyl)-1H-1,2,3-triazol-4-yl)butan-1-ol], at human recombinant HDAC1, the IC50 was above 50000 nM. Moreover, on human recombinant HDAC6, the “HDAC6 selectivity (fold)” value is 217 fold and the IC50 is 238 nM.
The corresponding values for `FC(F)c1nnc(-c2ccc(Cn3cc(-c4cccnc4)nn3)nc2)o1` [Compound 3835, 2-(difluoromethyl)-5-(6-((4-(pyridin-3-yl)-1H-1,2,3-triazol-1-yl)methyl)pyridin-3-yl)-1,3,4-oxadiazole] are above 50000 nM, 1170 fold and 42.7 nM.
For the compound `FC(F)c1nnc(-c2ccc(Cn3cc(-c4ccncc4)nn3)nc2)o1` [Compound 3837, 2-(difluoromethyl)-5-(6-((4-(pyridin-4-yl)-1H-1,2,3-triazol-1-yl)methyl)pyridin-3-yl)-1,3,4-oxadiazole], at human recombinant HDAC1, the IC50 is above 50000 nM. At human recombinant HDAC6, the “HDAC6 selectivity (fold)” value worked out at 965 fold and the IC50 was 51.8 nM.
Regarding `FC(F)c1nnc(-c2ccc(Cn3cc(-c4ccc5[nH]cnc5c4)nn3)nc2)o1` [Compound 3843, 2-(6-((4-(1H-benzo[d]imidazol-5-yl)-1H-1,2,3-triazol-1-yl)methyl)pyridin-3-yl)-5-(difluoromethyl)-1,3,4-oxadiazole], on human recombinant HDAC1, the IC50 is above 50000 nM. On human recombinant HDAC6, the “HDAC6 selectivity (fold)” value was determined as 5952 fold and the IC50 was 8.4 nM.
The corresponding values for `O=c1[nH]cccc1-c1cn(Cc2ccc(-c3nnc(C(F)F)o3)cn2)nn1` [Compound 3844, 3-(1-((5-(5-(difluoromethyl)-1,3,4-oxadiazol-2-yl)pyridin-2-yl)methyl)-1H-1,2,3-triazol-4-yl)pyridin-2(1H)-one] are above 50000 nM, 2415 fold and 20.7 nM.
